In brackets after ≈: the same amount, converted by molar mass.
Tests used:
[1] = Lipophilicity, log D of compound at pH 7.4; format: physicochemical; details: buffer
[2] = AUC (0 to 6 hrs) in rat plasma at 1 mg/kg, po; format: ADME, organism-based; parameters: time < 6 hr, dose 1 mg/kg, route po
[3] = Permeability across basolateral to apical side in human Caco-2 cells; format: ADME, cell-based; details: read-out: permeability
[4] = Tmax in rat brain at 1 mg/kg, po; format: ADME, organism-based
[5] = Unbound Cmax in rat plasma at 1 mg/kg, po by rapid equilibrium dialysis method; format: ADME, organism-based; details: in vivo
[6] = Cmax in rat plasma at 1 mg/kg, po; format: ADME, organism-based; parameters: dose 1 mg/kg, route po
in vitro = details: human, Caco-2
Description: Efflux ratio of permeability across basolateral to apical side over apical to basolateral side in human Caco-2 cells

[7] = Clearance in human hepatocytes assessed per million cells at 1 uM; format: ADME, cell-based, Hepatocyte; details: read-out: CLH
Homo sapiens = species on record: Homo sapiens; experiment: Selectivity ratio of Kb for antagonist activity at human alpha2A receptor stably expressed in CHO cells to Kb for antagonist activity at human alpha2C receptor stably expressed in CHO cells; format: cell-based
[8] = Solubility of compound in pH 7.4 buffer at 1 uM; format: physicochemical
[9] = Unbound Cmax in rat brain at 1 mg/kg, po by rapid equilibrium dialysis method; format: ADME, organism-based; details: in vivo
[10] = Permeability across apical to basolateral side in human Caco-2 cells; format: ADME, cell-based; details: read-out: permeability
[11] = Unbound fraction in rat brain at 1 mg/kg, po by rapid equilibrium dialysis method; format: ADME, organism-based
[12] = Cmax in rat brain at 1 mg/kg, po; format: ADME, organism-based; parameters: dose 1 mg/kg, route po
[13] = Tmax in rat plasma at 1 mg/kg, po; format: ADME, organism-based
[14] = Unbound fraction in rat plasma at 1 mg/kg, po by rapid equilibrium dialysis method; format: ADME, organism-based
[15] = AUC (0 to 6 hrs) in rat brain at 1 mg/kg, po; format: ADME, organism-based; parameters: time < 6 hr, dose 1 mg/kg, route po; details: in vivo
[16] = Clearance in rat hepatocytes assessed per million cells at 1 uM; format: ADME, cell-based, Hepatocyte; details: read-out: CLH
[17] = Unbound brain-to-plasma concentration ratio in rat at 1 mg/kg, po; format: ADME, organism-based; details: read-out: K(p,uu,brain)

| logD ([1]; read-out: logD) | AUC(0-t) at 6 h [2] | Papp B→A [3] | Tmax [4] | fCmax [5] | Cmax [6] | efflux ratio (in vitro) | hepatocyte CLint at 1 µM [7] | solubility at 1 µM [8] | fCmax [9] | Papp A→B [10] | fraction unbound [11] | Cmax [12] | Tmax [13] | fraction unbound [14] | AUC [15] | hepatocyte CLint at 1 µM [16] | Kp uu [17] | logD [1] | SMILES | Selectivity ratio (Homo sapiens) |
| --- | --- | --- | --- | --- | --- | --- | --- | --- | --- | --- | --- | --- | --- | --- | --- | --- | --- | --- | --- | --- |
| 3.4 | 9 ng·h/mL | 24.2 ×10⁻⁶ cm/s | 360 min | < 0.06 nM | 2 ng/mL | 1.5 | 294 µL/min/1e6 cells | 18 µM (≈ 5.86 µg/mL) | < 0.09 nM | 16.1 ×10⁻⁶ cm/s | < 0.01 | 3 ng/g | 30 min | < 0.01 | 14 ng·h/g | 682 µL/min/1e6 cells | – | – | Oc1cccc([C@H]2CCCN(C[C@H]3COc4ccccc4O3)C2)c1 | 1950 |
| – | 261 ng·h/mL | – | 30 min | 44 nM | 209 ng/mL | – | – | – | 18 nM | – | 0.096 | 72 ng/g | 30 min | 0.078 | 91 ng·h/g | – | 0.4 | – | CCN1C(=O)C(=O)N([C@H]2CCCN(C[C@H]3COc4ccccc4O3)C2)C1=O | – |
| – | – | 45 ×10⁻⁶ cm/s | – | – | – | 1 | 38.7 µL/min/1e6 cells | 176 µM (≈ 62.6 µg/mL) | – | 44.9 ×10⁻⁶ cm/s | – | – | – | – | – | 135 µL/min/1e6 cells | – | 3.3 | COCc1cccnc1N1CCN(C[C@H]2COc3ccccc3O2)CC1 [ORM-13070] | 4330 |
